Source: patent EP4737449A1 (Changchun Genescience Pharmaceutical Co., Ltd., priority 2023, dated 2025)
Read-outs that look alike come from different tables or passages of the source.

What was measured:
NUGC-3 cells = test: NUGC-3 cell proliferation assay (CTG, 7 days); format: cell-based, human; details: Homo sapiens, NUGC-3, 168 h
Method in brief: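 Cells (200/well) in 1640 medium with 10% serum exposed to 10-point, 3-fold DMSO dilutions (duplicates) for 7 days at 37°C. Viability read by CellTiter-Glo luminescence; % inhibition normalized to DMSO and blank, IC50 from variable-slope nonlinear fit.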

[1] = biological target: CYP 3A4 enzyme in human liver microsomes (Homo sapiens, UniProt P08684); test: CYP3A4 inhibition experiment in human liver microsomes
CYP 3A4 enzyme in human liver microsomes, sequence (P08684 whole entry): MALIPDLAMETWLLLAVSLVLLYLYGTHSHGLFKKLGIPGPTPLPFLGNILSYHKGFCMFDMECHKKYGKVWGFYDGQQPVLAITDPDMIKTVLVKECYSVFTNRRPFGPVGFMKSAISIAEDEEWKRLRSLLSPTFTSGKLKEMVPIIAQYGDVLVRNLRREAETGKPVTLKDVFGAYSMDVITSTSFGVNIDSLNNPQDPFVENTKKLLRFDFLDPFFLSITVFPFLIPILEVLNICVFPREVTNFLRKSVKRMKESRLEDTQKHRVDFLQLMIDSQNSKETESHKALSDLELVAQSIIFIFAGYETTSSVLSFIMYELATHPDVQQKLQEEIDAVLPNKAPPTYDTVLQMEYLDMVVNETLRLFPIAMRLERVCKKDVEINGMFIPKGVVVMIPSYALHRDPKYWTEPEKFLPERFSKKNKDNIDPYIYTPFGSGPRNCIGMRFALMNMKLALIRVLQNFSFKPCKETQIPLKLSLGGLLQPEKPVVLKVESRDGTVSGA

[2] = NUGC-3 cell proliferation, 7 days, CTG, read-out: IC50
[3] = CYP 3A4M IC50, human liver microsomes, midazolam as substrate
[4] = CYP 3A4T IC50, human liver microsomes, testosterone as substrate

SMILES | IC50 (NUGC-3 cells; [2]) [µM] | IC50 [1, 3] [µM] | IC50 [1, 4] [µM] | IC50 (NUGC-3 cells) [µM]
CN1CC[C@@H](Nc2cccc3c(CC(F)(F)F)c(C#CCNC(=O)c4cnn(C(C)(C)C)c4)nn23)[C@@H](F)C1 [Compound 001, 1-tert-butyl-N-[3-(7-{[(3S,4R)-3-fluoro-1-methylpiperidin-4-yl]amino}-3-(2,2,2-trifluoroethyl)pyrazolo[1,5-a]pyridin-2-yl)prop-2-yn-1-yl]-1H-pyrazole-4-carboxamide] | 0.387 | 26.3 | 27.2 | 
CN1CC[C@@H](Nc2cccc3c(CC(F)(F)F)c(C#CCNC(=O)c4cnn(C(C)(C)C)c4N)nn23)[C@@H](F)C1 [Compound 047] |  | 20.7 | 17.3 | 0.129
CCn1ncc(C(=O)NCC#Cc2nn3c(N[C@@H]4CCN(C)C[C@@H]4F)cccc3c2CC(F)(F)F)c1N [Compound 261, 5-amino-1-ethyl-N-[3-(7-{[(3S,4R)-3-fluoro-1-methylpiperidin-4-yl]amino}-3-(2,2,2-trifluoroethyl)pyrazolo[1,5-a]pyridin-2-yl)prop-2-yn-1-yl]-1H-pyrazole-4-carboxamide] |  | 15.6 | 7.4 | 0.172
CNC(=O)c1ccc(NCC#Cc2cc3c(N[C@@H]4CCN(C)C[C@@H]4F)cccc3n2CC(F)(F)F)c(OC)c1 [Control compound, reference compound] | 0.384 | 9.4 | 4.3 | 
